Experiments:
[1] = tested on: DNA; conditions: mutation relative to canonical SpCas9, SEQ ID NO: 18; cited from earlier work
[2] = tested on: 5′-Cy5-labeled dsDNA substrates; test: In vitro TPRT (prime editing) primer extension assay, denaturing urea PAGE; format: biochemical; conditions: standard gRNA (gRNA_0, lane 3), substrates not pre-nicked
Protocol: All reactions are with M-MLV RT.
Fluorescently labeled (Cy5) DNA targets were used as substrates, and were pre-nicked in this set of experiments. […] Then, the fluorescently labeled DNA substrate was added along with dNTPs and the RT enzyme. After 1 hour of incubation at 37° C., the reaction products were analyzed by denaturing urea-polyacrylamide gel electrophoresis (PAGE).
However, the DNA substrates are not pre-nicked in this set of experiments. […] The reaction products were analyzed by denaturing urea-polyacrylamide gel electrophoresis (PAGE).
Reactions were incubated at 37° C. for 1 hour, then analyzed by denaturing urea PAGE and visualized for Cy5 fluorescence.
Reactions were allowed to proceed at 37° C. for 1 hour prior to separation by denaturing urea PAGE and visualization by Cy5 fluorescence.

Substance | Function/Characteristic (as reported) [1] | cleavage of the DNA strand by the nickase [2]
1099-1368 deletion: SpCas9 mutation relative to SEQ ID NO: 18 | No nuclease activity | 
H840A: SpCas9 mutation relative to SEQ ID NO: 18 | Nickase mutant which cleaves the non-protospacer | 
D10A: SpCas9 mutation relative to SEQ ID NO: 18 | Nickase mutant which cleaves the protospacer | 
Cas9 nickase: Cas9 nickase (SpyCas9 H840A mutant) |  | efficiently cleaves
